From patent publication US10111431B2, “Application of biofilm formation inhibiting compounds enhances control of citrus canker” (priority 2013, dated 2018)
Where two headings read alike, the source gives them in different places.

Experiments:
Assay type in all cases: cell-based, Xanthomonas citri subsp. citri
[1] = tested on: biofilm formation and copper resistance related genes in Xac 306; test: qRT-PCR differential gene expression; conditions: for expression of genes important for biofilm formation (qRT-PCR): IAN 100 μg/mL or D-leucine 10 mM, NB, 48 h, 15 genes, gyrA control; for expression of galU, gumB, gumD, copA and copB in planktonic or biofilm cells: in the presence of CuSO4, data not shown
Description: To investigate the mechanisms of D-leucine and IAN inhibiting Xac 306 biofilm formation, qRT-PCR analysis was used to determine differential gene expression for Xac306 cells with and without IAN (100 μg/mL) or D-leucine (10 mM). For this analysis, Xac306 was cultured in NB medium with or without biofilm inhibitor at 28° C. without shaking. Cells were collected after 48 h of incubation by centrifugation at 12,000×g for 5 min at 4° C. and used for RNA extraction. For the analysis of gene expression in Xac 306 planktonic and biofilm cells with sub-MICs CuSO4 concentrations, we followed the same procedure described for evaluation of resistance of Xac biofilm cells to copper in glass tubes. Both biofilm cells attached to the glass tube at the medium-air interface and planktonic cells in culture were used. Cells collected after 48 h of incubation in the presence of CuSO4 were washed by centrifugation at 12,000×g for 5 min at 4° C. with diethylpyrocarbonate treated water. Cells collected from five tubes were combined and served as one biological replicate. The pellet was stored at −80° C. until RNA extraction. Total RNA of Xac306 cells was isolated using RNA protect bacterial reagent (Qiagen, Valencia, Calif.) and RNeasy Mini Kit (Qiagen, Valencia, Calif.), following the manufacturer's instructions. The contaminated genomic DNA was removed using a TURBO DNA-free kit (Ambion, Austin, Tex.). RNA purity and quality were evaluated with a NanoDrop ND-1000 spectrophotometer (NanoDrop Technologies, Wilmington, Del.).
A one-step QRT-PCR was conducted using a 7500 fast real-time PCR system (Applied Biosystems, Foster City, Calif.) with a QuantiTect SYBR green RT-PCR kit (Qiagen, Valencia, Calif.) following the manufacturer's instructions. The gene specific primers (Table 1) were designed based on the genome sequence of Xac strain 306 (da Silver et al., 2002). In the biofilm inhibition mechanism studies, those primers targeted fifteen genes that were previously identified to be related bioflim formation in Xac strain 306 (Li and Wang, 2011). In the copper resistance analysis, those primers targeted the gum genes gumB and gumD polysaccharides—related gene galU, and copper resistance-related genes copA and copB (Teixeira et al., 2008; Behlau et al., 2012). The DNA gyrase subunit A encoding gene gyrA was used as endogenous control. The relative fold change in gene expression was calculated using the formula 2^−ΔΔCT (Livak and Schmittgen, 2001). qRT-PCR was repeated twice with four independent biological replicates each time.

[2] = tested on: Xac strain 306 biofilm formation; test: Biofilm formation on citrus abaxial leaf surfaces; conditions: 10 mM D-leucine, 100 μg/mL IAN; 28° C., 24 h, crystal violet
Description: To gain further evidence of the effect of selected compounds on biofilm formation, biofilm formation in glass tubes and on leaf surfaces was examined as described previously (Li and Wang, 2012). Briefly, the standardized overnight culture of Xac 306 (OD600=1.0) were diluted 1:10 in fresh NB containing 1.0% glucose and the selected compound. For biofilm formation assay in glass tubes (Fischer Scientific, Pittsburgh, Pa.), 1 ml of the diluted bacterial suspension was transferred into each sterilized borosilicate glass tube and incubated at 28° C. without shaking for 48 h. The planktonic growth was then discarded and the tubes were gently washed three times with SDW. The biofilm formed on the tubes was visualized by staining with 0.1% CV. The stain remaining in cells on glass tubes was dissolved in 95% ethanol and quantified by measuring the optical density at 590 nm. For biofilm formation assay on leaf surfaces, 20 μl of the diluted bacterial suspension was dropped onto the abaxial surface of citrus leaves. The leaves were kept in a humidified chamber at 28° C. for 24 h without shaking. The biofilm formed on the leaf surfaces was visualized by staining with 0.1% CV. The biofilm assays were repeated three times with four replicates each time.

[3] = tested on: X. citri subsp. citri strain 306; test: Determination of minimum inhibitory concentrations (MICs) in NB medium, 96-well plate; conditions: Xanthomonas citri, 48 h
Description: Xac strain 306 was grown in NB at 28° C. with shaking at 200 rpm for 7 h. The cultures were standardized to an OD600 of 0.03 (5×10^7 colony forming unit (CFU)/mL) in NB and then aliquoted into wells of a 96-well plate, 190 μL per well. The initial test concentrations of the compounds were diluted (1:20) in the culture (10 μl of compound in 190 μl of culture) and incubated at 28° C. under stationary conditions. The cultures were monitored at 24 and 48 h at OD600, and the lowest concentration resulting in no growth after 48 h compared to the control samples was defined as the MIC for Xac strain 306. All determinations were conducted in eight replicate wells and repeated three times.

Xac306 biofilm formation = test: Static biofilm formation assay in 96-well polystyrene plates with crystal violet staining; conditions: for dose dependence of Xac306 biofilm decrease: 0 to 20 mM for D-leucine and D-serine, 0 to 150 μg/mL for IAN; for decrease in biofilm mass: 10 mM for D-leucine and 100 μg/mL for IAN (below MIC); for effect on planktonic cell density: sub-MIC: 10 mM D-leucine, 100 μg/mL IAN, data not shown
Description: A static biofilm formation assay in 96-well polystyrene plates coupled with CV staining was performed as previously reported with modifications (Li and Wang, 2011). Briefly, a 96-well polystyrene plate (Nunclon surface, Nuncbrand, Denmark) was prepared with 170 μL NB plus 1.0% glucose per well. Aliquots of 20 μL each of the different concentrations of the tested compound were pipetted into eight wells containing 170 μL of NB plus 1.0% glucose. To each of these wells was added 10 μL of the standardized overnight Xac 306 culture (OD600=1.0). Control wells contained NB plus 1.0% glucose and SDW or 0.1% DMSO as a sterility control, or standardized overnight Xac 306 culture as a growth control. The plate was covered by a MicroWell lid (Nunclon), sealed with parafilm to prevent evaporation and incubated at 28° C. for 48 h without shaking. After incubation, the planktonic growth was measured at OD600. To quantify the amount of biofilms formed on the surfaces of the wells, the culture was removed from the wells. After drying, the wells were washed twice with 200 μl of SDW for 5 min, allowed to dry then 200 μl of 0.1% CV added. After 30 minutes, the CV was removed. The wells were washed with excess SDW to remove unbound CV and air dried in an inverted position for 2 h. Afterward, 200 μl of 95% ethanol was added to the wells and incubated for 30 min at room temperature to elute bound CV. The eluted CV was 2-fold diluted in double distilled water and the absorbance at 590 nm was measured. Each data point was averaged from eight replicate wells.

Row | Compound | expression of genes important for biofilm formation (qRT-PCR) [1] | expression of galU, gumB, gumD, copA and copB in planktonic or biofilm cells [1] | biofilm formation on citrus leaf surfaces [2] | MIC [3] [mM] | dose dependence of Xac306 biofilm decrease (Xac306 biofilm formation) | decrease in biofilm mass (Xac306 biofilm formation) [%] | effect on planktonic cell density (Xac306 biofilm formation) | MIC ([3]; compound alone, NB medium, 28° C., stationary, OD600, read-out: MIC) [µg/mL]
1 | CC(C)C[C@@H](N)C(=O)O [D-leucine] | no induction or repression of any of the tested genes | did not affect express of any of the gene tested | declined biofilm formation | 16 | decreased Xac306 biofilm in a dose-dependent manner | 58 | does not significantly decrease planktonic cell density | –
2 | N#CCc1c[nH]c2ccccc12 [IAN, 3-indolylacetonitrile] | repression of chemotaxis and motility genes cheY, motB and pilB | did not affect express of any of the gene tested | declined biofilm formation | – | decreased Xac306 biofilm in a dose-dependent manner | 65 | does not significantly decrease planktonic cell density | 200
